Experimental data reported in US20260008818A1, “CYCLIC PEPTIDE OR SALT THEREOF, AND USES THEREOF” (FUJIFILM Corporation, priority 2023, published 2026).
Blank lines part the entries; values can stand above or below the substance they belong to. Bridge positions count the residues as written; N and C are the ends. Ends that are not written are not given here. COCH2 = acetyl group that carries the bridge

Test system: Recombinant Human FGFR1 alpha (IIIc) Fc Chimera Protein
Test: Binding affinity of enzymatically synthesized cyclic peptide to FGFR by ELISA
Conditions: luminescence signal at reaction concentration 10 nmol/L, SEQ ID NO: 39 standardized to 1, enzyme synthesis product
In short: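 Graded A–D from luminescence at 10 nmol/L peptide, expressed relative to SEQ ID NO: 39 after subtracting wells lacking receptor. Read-out used anti-Myc antibody (2 h, RT) with chemiluminescent substrate, following 3 h RT binding of peptide to immobilized FGFR1α(IIIc)-Fc, 5 ng per well.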

Evaluation result of binding affinity to FGFR: B (0.5 or more and less than 0.7)
Substance: 251 (DCIWRVTISGHLAPFWFK(COCH2)Y; thioether 2-18 (inferred)) [compound 251]

Evaluation result of binding affinity to FGFR: B (0.5 or more and less than 0.7)
Substance: 252 (LCRVVLNGWIAPFWTIK(COCH2)E; thioether 2-17 (inferred)) [compound 252]

Evaluation result of binding affinity to FGFR: C (0.1 or more and less than 0.5)
Substance: 253 (ICWTQLVLDGLYAPFLHK(COCH2)S; thioether 2-18 (inferred)) [compound 253]

Evaluation result of binding affinity to FGFR: C (0.1 or more and less than 0.5)
Substance: 254 (WCQLRFQGHLAPFIILK(COCH2)H; thioether 2-17 (inferred)) [compound 254]

Evaluation result of binding affinity to FGFR: B (0.5 or more and less than 0.7)
Substance: 256 (NCWGYHYTIPFIK(COCH2)F; thioether 2-13 (inferred)) [compound 256]

Evaluation result of binding affinity to FGFR: C (0.1 or more and less than 0.5)
Substance: 257 (VCPLTLQGWQAPFWVVK(COCH2)E; thioether 2-17 (inferred)) [compound 257]

Evaluation result of binding affinity to FGFR: A (0.7 or more)
Substance: 258 (ECYHKLIFLGWEAPFWHK(COCH2)E; thioether 2-18 (inferred)) [compound 258]

Evaluation result of binding affinity to FGFR: C (0.1 or more and less than 0.5)
Substance: 261 (QCQWNIYRHQWAPFWVIEK(COCH2)S; thioether 2-19 (inferred)) [compound 261]

Evaluation result of binding affinity to FGFR: A (0.7 or more)
Substance: 264 (ACQWGRWALQGHQVPFLTK(COCH2)I; thioether 2-19 (inferred)) [compound 264]

Evaluation result of binding affinity to FGFR: C (0.1 or more and less than 0.5)
Substance: 266 (PCSWVQLQYQGFTAPFLVK(COCH2)Y; thioether 2-19 (inferred)) [compound 266]

Evaluation result of binding affinity to FGFR: C (0.1 or more and less than 0.5)
Substance: 268 (VCRLSFWGHAAPFLSVK(COCH2)T; thioether 2-17 (inferred)) [compound 268]

Evaluation result of binding affinity to FGFR: C (0.1 or more and less than 0.5)
Substance: 269 (VCYEQLVVWGHIAPFLTK(COCH2)H; thioether 2-18 (inferred)) [compound 269]

Evaluation result of binding affinity to FGFR: C (0.1 or more and less than 0.5)
Substance: 273 (QCYVQLYVWGHPAPFYWDK(COCH2)N; thioether 2-19 (inferred)) [compound 273]

Evaluation result of binding affinity to FGFR: C (0.1 or more and less than 0.5)
Substance: 274 (QCYVQLYFWGHPAPFYWDK(COCH2)T; thioether 2-19 (inferred)) [compound 274]

Evaluation result of binding affinity to FGFR: B (0.5 or more and less than 0.7)
Substance: 275 (WCIRRLYSPWGHVAPFWVK(COCH2)P; thioether 2-19 (inferred)) [compound 275]

Evaluation result of binding affinity to FGFR: C (0.1 or more and less than 0.5)
Substance: 278 (SCIVPLYIYGWRAPYWLK(COCH2)V; thioether 2-18 (inferred)) [compound 278]

Evaluation result of binding affinity to FGFR: A (0.7 or more)
Substance: 286 (HCSYEKLQFHGHEAPFRVK(COCH2)V; thioether 2-19 (inferred)) [compound 286]

Evaluation result of binding affinity to FGFR: A (0.7 or more)
Substance: 294 (HCSYERLQFHGHEAPFRVK(COCH2)K; thioether 2-19 (inferred)) [compound 294]

Evaluation result of binding affinity to FGFR: A (0.7 or more)
Substance: 295 (MCSYERLQFHGHEAPFRVK(COCH2)V; thioether 2-19 (inferred)) [compound 295]

Evaluation result of binding affinity to FGFR: A (0.7 or more)
Substance: 301 (HCSYERLMFHGHEAPFRVK(COCH2)V; thioether 2-19 (inferred)) [compound 301]

Evaluation result of binding affinity to FGFR: B (0.5 or more and less than 0.7)
Substance: 302 (HCSYERLQMHGHEAPFRVK(COCH2)V; thioether 2-19 (inferred)) [compound 302]

Second part, the substance before the results:

Substance: 250 (QCLWAQLQLLTHLAPYIVK(COCH2)I; thioether 2-19 (inferred)) [compound 250]
Evaluation result of binding affinity to FGFR: C (0.1 or more and less than 0.5)

Substance: 255 (RCWRQIRYGQLLAPFLVK(COCH2)Q; thioether 2-18 (inferred)) [compound 255]
Evaluation result of binding affinity to FGFR: C (0.1 or more and less than 0.5)

Substance: 259 (GCRPVVTHHPWAPFWVVTK(COCH2)E; thioether 2-19 (inferred)) [compound 259]
Evaluation result of binding affinity to FGFR: B (0.5 or more and less than 0.7)

Substance: 260 (ECVLQRLFFEGHLAPFILK(COCH2)I; thioether 2-19 (inferred)) [compound 260]
Evaluation result of binding affinity to FGFR: B (0.5 or more and less than 0.7)

Substance: 262 (FCYQRLYFQGHIAPYWFVK(COCH2)D; thioether 2-19 (inferred)) [compound 262]
Evaluation result of binding affinity to FGFR: B (0.5 or more and less than 0.7)

Substance: 263 (ICRLSWFGFKAPFWIVDSK(COCH2)Q; thioether 2-19 (inferred)) [compound 263]
Evaluation result of binding affinity to FGFR: B (0.5 or more and less than 0.7)

Substance: 265 (FCQFETLKFFGWEAPYLVK(COCH2)L; thioether 2-19 (inferred)) [compound 265]
Evaluation result of binding affinity to FGFR: C (0.1 or more and less than 0.5)

Substance: 267 (ACRWAQLQFLSWGAPFLVK(COCH2)T; thioether 2-19 (inferred)) [compound 267]
Evaluation result of binding affinity to FGFR: C (0.1 or more and less than 0.5)

Substance: 270 (QCYVQLYVWGHPAPFYWDK(COCH2)T; thioether 2-19 (inferred)) [compound 270]
Evaluation result of binding affinity to FGFR: C (0.1 or more and less than 0.5)

Substance: 271 (QCWSQVSTPWGHTAPFIFK(COCH2)D; thioether 2-19 (inferred)) [compound 271]
Evaluation result of binding affinity to FGFR: B (0.5 or more and less than 0.7)

Substance: 272 (WCHIAPFLYHDGIQWGHLK(COCH2)V; thioether 2-19 (inferred)) [compound 272]
Evaluation result of binding affinity to FGFR: B (0.5 or more and less than 0.7)

Substance: 276 (QCYVQLYVWGHPAPFYWDK(COCH2)S; thioether 2-19 (inferred)) [compound 276]
Evaluation result of binding affinity to FGFR: C (0.1 or more and less than 0.5)

Substance: 277 (QCYVQLYVWGHPAPFYWDK(COCH2)I; thioether 2-19 (inferred)) [compound 277]
Evaluation result of binding affinity to FGFR: C (0.1 or more and less than 0.5)

Substance: 279 (YCTIQRLWLLHEAPFWVK(COCH2)T; thioether 2-18 (inferred)) [compound 279]
Evaluation result of binding affinity to FGFR: C (0.1 or more and less than 0.5)

Substance: 280 (PCWTRVVLLHHYAPFWAK(COCH2)I; thioether 2-18 (inferred)) [compound 280]
Evaluation result of binding affinity to FGFR: C (0.1 or more and less than 0.5)

Substance: 281 (FCTIQQLILVNHRAPFWVK(COCH2)T; thioether 2-19 (inferred)) [compound 281]
Evaluation result of binding affinity to FGFR: B (0.5 or more and less than 0.7)

Substance: 282 (TCQWEQLRIGPHLAPFRSK(COCH2)R; thioether 2-19 (inferred)) [compound 282]
Evaluation result of binding affinity to FGFR: C (0.1 or more and less than 0.5)

Substance: 283 (KCSYERLQFHGHEAPFRVK(COCH2)V; thioether 2-19 (inferred)) [compound 283]
Evaluation result of binding affinity to FGFR: B (0.5 or more and less than 0.7)

Substance: 284 (HCKYERLQFHGHEAPFRVK(COCH2)V; thioether 2-19 (inferred)) [compound 284]
Evaluation result of binding affinity to FGFR: A (0.7 or more)

Substance: 285 (HCSYKRLQFHGHEAPFRVK(COCH2)V; thioether 2-19 (inferred)) [compound 285]
Evaluation result of binding affinity to FGFR: B (0.5 or more and less than 0.7)

Substance: 287 (HCSYERLKFHGHEAPFRVK(COCH2)V; thioether 2-19 (inferred)) [compound 287]
Evaluation result of binding affinity to FGFR: A (0.7 or more)

Substance: 288 (HCSYERLQFKGHEAPFRVK(COCH2)V; thioether 2-19 (inferred)) [compound 288]
Evaluation result of binding affinity to FGFR: B (0.5 or more and less than 0.7)

Substance: 289 (HCSYERLQFHKHEAPFRVK(COCH2)V; thioether 2-19 (inferred)) [compound 289]
Evaluation result of binding affinity to FGFR: C (0.1 or more and less than 0.5)

Substance: 290 (HCSYERLQFHGHKAPFRVK(COCH2)V; thioether 2-19 (inferred)) [compound 290]
Evaluation result of binding affinity to FGFR: B (0.5 or more and less than 0.7)

Substance: 291 (HCSYERLQFHGHEAKFRVK(COCH2)V; thioether 2-19 (inferred)) [compound 291]
Evaluation result of binding affinity to FGFR: C (0.1 or more and less than 0.5)

Substance: 292 (HCSYERLQFHGHEAPFKVK(COCH2)V; thioether 2-19 (inferred)) [compound 292]
Evaluation result of binding affinity to FGFR: B (0.5 or more and less than 0.7)

Substance: 293 (HCSYERLQFHGHEAPFRKK(COCH2)V; thioether 2-19 (inferred)) [compound 293]
Evaluation result of binding affinity to FGFR: C (0.1 or more and less than 0.5)

Substance: 296 (HCMYERLQFHGHEAPFRVK(COCH2)V; thioether 2-19 (inferred)) [compound 296]
Evaluation result of binding affinity to FGFR: A (0.7 or more)

Substance: 297 (HCSMERLQFHGHEAPFRVK(COCH2)V; thioether 2-19 (inferred)) [compound 297]
Evaluation result of binding affinity to FGFR: C (0.1 or more and less than 0.5)

Substance: 298 (HCSYMRLQFHGHEAPFRVK(COCH2)V; thioether 2-19 (inferred)) [compound 298]
Evaluation result of binding affinity to FGFR: B (0.5 or more and less than 0.7)

Substance: 299 (HCSYEMLQFHGHEAPFRVK(COCH2)V; thioether 2-19 (inferred)) [compound 299]
Evaluation result of binding affinity to FGFR: C (0.1 or more and less than 0.5)

Substance: 300 (HCSYERMQFHGHEAPFRVK(COCH2)V; thioether 2-19 (inferred)) [compound 300]
Evaluation result of binding affinity to FGFR: A (0.7 or more)

Substance: 303 (HCSYERLQFMGHEAPFRVK(COCH2)V; thioether 2-19 (inferred)) [compound 303]
Evaluation result of binding affinity to FGFR: A (0.7 or more)

Substance: 304 (HCSYERLQFHMHEAPFRVK(COCH2)V; thioether 2-19 (inferred)) [compound 304]
Evaluation result of binding affinity to FGFR: C (0.1 or more and less than 0.5)

Substance: 305 (HCSYERLQFHGHMAPFRVK(COCH2)V; thioether 2-19 (inferred)) [compound 305]
Evaluation result of binding affinity to FGFR: A (0.7 or more)
